Laboratory results taken from patent US6673798B2, “PDGF receptor kinase inhibitory compounds, their preparation, purification and pharmaceutical compositions including same” (Yissum Research Development Company of the Hebrew …, priority 1999, dated 2004).

Experiments:
neointimal formation = details: controlled local delivery, rat carotid balloon injury model; cited from earlier work
[1] = test system: fibroblast growth factor-dependent DNA synthesis; details: relative to PDGF-dependent DNA synthesis; cited from earlier work
[2] = test system: DNA synthesis stimulated by insulin, by epidermal growth factor, or by a combination of both; details: cited from earlier work
[3] = molecular target: epidermal growth factor receptor (Homo sapiens, UniProt P00533); details: cited from earlier work
porcine SMC = assay: Inhibition of SMC proliferation and recovery (cell count); assay type: cell-based; details: 10 μM; for mean reduction in SMC count by day 3: compared to DMSO treated control cells; for reversibility of the inhibitory effect on SMC proliferation: cultures washed on day 7, recovery counted day 13
Experimental: Smooth muscle cells (SMC) were obtained under aseptic conditions from porcine abdominal aortas. Each artery was cut open and the endothelial surface mechanically scraped. The vessels were then cut into 2 mm^2 fragments which were placed in culture dishes with Dulbecco's modified Eagle's medium (DMEM) supplemented with 15% (v/v) fetal calf serum (FCS), 100 u/ml penicillin, 100 μg/ml streptomycin, and […]. The tissue fragments were then placed in an incubator at 37° C. under 9% CO2 atmosphere until SMC outgrowth was detected (typically within 3-7 days). […] For experiments testing the effect of tyrphostins on growth inhibition and recovery (see below), SMC from passages 1-3 were replated in 15 mm wells pretreated with 3 μg/cm^2 fibronectin (Biological Industries, Kibbutz Beit Haemek, Israel) at 15,000 cells/well.
Inhibition of cell proliferation and recovery: Monolayer cell growth inhibition and recovery experiments were repeated 3 or 4 times. Each experiment was performed in triplicate. Approximately 15,000 cells (SMC or PAEC) in 1 ml of culture medium supplemented with either 15% FCS (SMC) or 10% FCS (PAEC) were seeded on day 0 in 15 mm-wells precoated with fibronectin (SMC) or uncoated (PAEC). Cultures were treated with 10 μM of the following tyrphostin compounds: AG2033, AC2034, AG2043 and AG2044 (for SMC) or AG2033 (for PAEC) dissolved in 0.1% DMSO on days 1 and 3. On day 7, cultures were washed and the cells allowed to recover. Typically cells were counted on days 3 and 6 for inhibition, and on day 13 for recovery. The medium supplemented with serum (DMEM for SMC and Ham's F12 for PAEC) was changed every other day throughout the experiment.
Cells were grown in the presence of the specified tyrphostins and were counted on days 3, 6 and 13 in culture. On day 7 the cultures were washed and the cells allowed to recover. […] The inhibitory effect of all three compounds was reversible, and the cells resumed normal growth response as soon as the treatment with the tyrphostins was withdrawn.

human PDGF α-receptor = human PDGF α-receptor (Homo sapiens, UniProt P16234); details: cited from earlier work
[4] = molecular target: vascular endothelial growth factor receptor KDR (Homo sapiens, UniProt P35968); details: cited from earlier work
[5] = test system: porcine aortic endothelial cells; details: cited from earlier work
[6] = molecular target: stem cell factor receptor (c-Kit) (Homo sapiens, UniProt P10721); details: cited from earlier work
[7] = test system: sis-transfected NIH 3T3 cells; details: cited from earlier work
PDGF β-receptor [8] = molecular target: T1, PDGF β-receptor (Homo sapiens, UniProt P09619); details: cited from earlier work
p60c-src(F527) = molecular target: T2, p60c-src(F527) (Gallus gallus, UniProt P00523, Y527F); details: immunoprecipitated from src-transformed NIH 3T3 cells; cited from earlier work
T2 construct: host or cells: src-transformed NIH 3T3 cells (immunoprecipitate)

[9] = test system: src-transformed NIH 3T3 cells; details: cited from earlier work
PDGF β-receptor [10] = molecular target: T1, PDGF β-receptor; assay: PDGF-induced PDGFR autophosphorylation in intact PAEC cells; assay type: cell-based; set-up: expressed in transfected cells; host or cells: porcine aortic endothelial cells (PAEC), stably transfected; details: intact PAEC cells expressing PDGFR, PDGF-BB stimulated; read-out: IC50 (50% inhibition of phosphorylation) PDGFR
Experimental: Effect of tyrphostins on PDGF-induced PDGFR autophosphorylation in intact PAEC cells: PAEC cells, transfected with either PDGFR or KDR, cultivated in Ham's F-12 medium supplemented with 10% fetal calf serum (FCS), were synchronized for 20 hours in a medium containing 0.01% BSA. […] After stimulation, the cells were solubilized in Nonidet P-40 (1%) containing lysis buffer.
The analysis of PDGF β-receptor phosphorylation was performed as follows. Cell lysates were subjected to immunoprecipitation using the PDGF β-receptor specific antiserum R3 [5]. The precipitates were subjected to polyacrylamide (7.5%) gel electrophoresis in presence of sodium dodecyl sulfate (SDS-PAGE) and were thereafter blotted onto a nitrocellulose membrane (Hybond C-EXTRA, Amersham). Phosphorylated proteins were detected by immunoblotting using the horseradish-peroxidase conjugated phosphotyrosine antibodies PY20 and 4G10 (Upstate Biotechnology), followed by application of secondary horseradish-peroxidase conjugated goat-anti-mouse antibody and chemoluminescence-based detection (ECL, Amersham) and autoradiography.
The data in Table 9 presents the differential potencies of the various compounds with respect to PDGFR and KDR, as was performed on intact PAEC cells expressing these receptors (see experimental methods section above).

PDGFβR = molecular target: T3, PDGFβR (Mus musculus, UniProt P05622); assay: PDGF-induced PDGFβR autophosphorylation in intact Swiss 3T3 cells (FIG. 8); assay type: cell-based; details: compared with AG2033 at 1 μM
T3 construct: A preparation of purified PDGFR from Swiss 3T3 cell membranes was used; endogenous in cells
Experimental: Kinase reactions, using an isolated PDGFβR preparation, in the presence of 0.03-3 μM tyrphostin, were conducted, utilizing [γ-^32P]ATP as probe. Densitometric evaluation, relative to control lacking the tyrphostin inhibitor (100%), results in the percent autokinase activity, presented in Table 8 and in the dose-response curves for the purified transoid isomers AG2033 (FIG. 6) and AG2043 (FIG. 7). Further comparison between the resulting autoradiogrms for each pair of geometrical isomers AG2033 and AG2034 (upper panel); AG2043 and AG2044 (lower panel), for their inhibitory activity towards PDGF-induced PDGFβR autophosphorylation (concentration range: 0.1-10 μM) in intact cells is presented in FIG. 8. […] Similar potency relation exists between the AG2043 and AG2044 isomers.

T1 sequence (P09619 33-1106): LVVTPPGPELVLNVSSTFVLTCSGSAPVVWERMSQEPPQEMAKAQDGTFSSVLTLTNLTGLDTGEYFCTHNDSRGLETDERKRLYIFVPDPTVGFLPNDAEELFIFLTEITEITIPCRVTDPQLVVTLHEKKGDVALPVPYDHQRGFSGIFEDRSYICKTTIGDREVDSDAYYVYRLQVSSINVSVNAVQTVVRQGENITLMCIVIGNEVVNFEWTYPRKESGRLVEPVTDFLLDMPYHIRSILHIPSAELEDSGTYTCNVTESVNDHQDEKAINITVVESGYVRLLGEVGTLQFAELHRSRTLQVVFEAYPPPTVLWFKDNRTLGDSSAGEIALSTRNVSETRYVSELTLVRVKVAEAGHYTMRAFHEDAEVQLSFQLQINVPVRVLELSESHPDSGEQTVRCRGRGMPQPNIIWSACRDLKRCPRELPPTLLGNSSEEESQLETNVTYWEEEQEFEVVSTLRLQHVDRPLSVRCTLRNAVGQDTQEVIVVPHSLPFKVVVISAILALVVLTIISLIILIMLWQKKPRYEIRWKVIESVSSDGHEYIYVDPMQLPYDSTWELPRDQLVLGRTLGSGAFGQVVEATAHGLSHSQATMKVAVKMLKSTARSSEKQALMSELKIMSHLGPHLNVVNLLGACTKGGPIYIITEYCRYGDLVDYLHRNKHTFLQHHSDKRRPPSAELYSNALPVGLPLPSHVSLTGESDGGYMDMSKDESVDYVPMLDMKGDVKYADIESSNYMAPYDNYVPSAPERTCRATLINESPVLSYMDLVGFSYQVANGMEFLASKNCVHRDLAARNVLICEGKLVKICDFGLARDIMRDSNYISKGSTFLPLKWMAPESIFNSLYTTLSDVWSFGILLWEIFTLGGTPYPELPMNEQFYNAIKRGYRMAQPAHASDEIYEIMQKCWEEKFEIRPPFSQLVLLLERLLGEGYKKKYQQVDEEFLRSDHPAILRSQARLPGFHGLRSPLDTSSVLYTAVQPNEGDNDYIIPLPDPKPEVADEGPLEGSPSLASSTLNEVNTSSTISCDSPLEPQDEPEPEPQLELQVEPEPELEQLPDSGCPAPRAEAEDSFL
Chain of epidermal growth factor receptor (P00533 25-1210, species assumed): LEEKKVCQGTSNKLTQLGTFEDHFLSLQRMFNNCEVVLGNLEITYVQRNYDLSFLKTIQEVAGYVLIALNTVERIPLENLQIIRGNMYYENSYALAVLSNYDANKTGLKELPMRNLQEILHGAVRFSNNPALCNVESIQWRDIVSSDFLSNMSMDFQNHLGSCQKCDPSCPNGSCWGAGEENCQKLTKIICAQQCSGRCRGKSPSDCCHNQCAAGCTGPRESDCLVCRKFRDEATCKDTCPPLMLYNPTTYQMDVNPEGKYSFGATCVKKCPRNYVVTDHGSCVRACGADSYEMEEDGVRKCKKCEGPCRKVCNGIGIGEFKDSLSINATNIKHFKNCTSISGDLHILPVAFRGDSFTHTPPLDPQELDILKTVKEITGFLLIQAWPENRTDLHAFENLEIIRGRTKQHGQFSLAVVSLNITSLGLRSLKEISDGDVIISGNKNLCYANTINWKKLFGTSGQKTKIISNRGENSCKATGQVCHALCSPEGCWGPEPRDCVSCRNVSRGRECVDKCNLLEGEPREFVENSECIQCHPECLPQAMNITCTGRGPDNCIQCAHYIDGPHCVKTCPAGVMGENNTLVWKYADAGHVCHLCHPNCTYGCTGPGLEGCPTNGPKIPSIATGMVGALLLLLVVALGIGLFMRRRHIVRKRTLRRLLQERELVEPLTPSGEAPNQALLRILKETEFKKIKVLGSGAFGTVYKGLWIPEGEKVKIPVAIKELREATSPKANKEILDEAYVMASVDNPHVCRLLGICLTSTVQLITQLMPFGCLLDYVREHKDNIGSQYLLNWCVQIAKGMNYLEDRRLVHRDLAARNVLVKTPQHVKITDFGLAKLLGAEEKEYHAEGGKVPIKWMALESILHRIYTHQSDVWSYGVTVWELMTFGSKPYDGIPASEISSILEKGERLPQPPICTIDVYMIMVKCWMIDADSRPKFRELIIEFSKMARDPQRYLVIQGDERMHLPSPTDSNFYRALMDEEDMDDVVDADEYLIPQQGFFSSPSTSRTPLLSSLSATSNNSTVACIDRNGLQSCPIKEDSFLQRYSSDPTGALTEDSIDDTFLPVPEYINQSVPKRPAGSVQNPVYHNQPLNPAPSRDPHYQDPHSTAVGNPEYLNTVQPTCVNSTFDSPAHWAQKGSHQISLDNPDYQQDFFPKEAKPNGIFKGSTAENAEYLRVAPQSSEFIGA
Chain of stem cell factor receptor (c-Kit) (P10721 26-976): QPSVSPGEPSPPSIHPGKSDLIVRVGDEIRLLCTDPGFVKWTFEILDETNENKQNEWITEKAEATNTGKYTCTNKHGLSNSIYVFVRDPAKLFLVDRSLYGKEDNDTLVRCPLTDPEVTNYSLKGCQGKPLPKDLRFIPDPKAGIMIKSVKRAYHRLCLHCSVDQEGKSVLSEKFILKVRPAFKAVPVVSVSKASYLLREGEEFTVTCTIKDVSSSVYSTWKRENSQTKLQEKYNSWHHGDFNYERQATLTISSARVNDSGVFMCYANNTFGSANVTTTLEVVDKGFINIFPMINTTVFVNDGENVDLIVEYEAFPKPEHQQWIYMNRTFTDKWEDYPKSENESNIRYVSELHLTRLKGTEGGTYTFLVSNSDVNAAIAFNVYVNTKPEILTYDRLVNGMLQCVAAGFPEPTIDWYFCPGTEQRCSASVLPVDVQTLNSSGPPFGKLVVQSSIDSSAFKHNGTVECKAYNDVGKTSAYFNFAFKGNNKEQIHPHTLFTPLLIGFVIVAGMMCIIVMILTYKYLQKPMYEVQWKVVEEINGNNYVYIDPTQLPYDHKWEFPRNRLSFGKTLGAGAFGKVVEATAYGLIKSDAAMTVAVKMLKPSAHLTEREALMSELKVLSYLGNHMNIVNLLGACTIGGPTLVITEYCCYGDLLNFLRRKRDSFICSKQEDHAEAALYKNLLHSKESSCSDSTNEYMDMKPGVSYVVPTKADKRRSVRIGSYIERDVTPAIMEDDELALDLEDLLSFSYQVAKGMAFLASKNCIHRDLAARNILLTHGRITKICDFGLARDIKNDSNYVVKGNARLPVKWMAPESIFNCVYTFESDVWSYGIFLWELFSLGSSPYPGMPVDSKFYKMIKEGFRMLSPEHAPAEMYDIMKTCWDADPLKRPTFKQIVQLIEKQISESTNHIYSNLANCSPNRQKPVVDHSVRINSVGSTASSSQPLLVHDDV
Chain of vascular endothelial growth factor receptor KDR (P35968 20-1356): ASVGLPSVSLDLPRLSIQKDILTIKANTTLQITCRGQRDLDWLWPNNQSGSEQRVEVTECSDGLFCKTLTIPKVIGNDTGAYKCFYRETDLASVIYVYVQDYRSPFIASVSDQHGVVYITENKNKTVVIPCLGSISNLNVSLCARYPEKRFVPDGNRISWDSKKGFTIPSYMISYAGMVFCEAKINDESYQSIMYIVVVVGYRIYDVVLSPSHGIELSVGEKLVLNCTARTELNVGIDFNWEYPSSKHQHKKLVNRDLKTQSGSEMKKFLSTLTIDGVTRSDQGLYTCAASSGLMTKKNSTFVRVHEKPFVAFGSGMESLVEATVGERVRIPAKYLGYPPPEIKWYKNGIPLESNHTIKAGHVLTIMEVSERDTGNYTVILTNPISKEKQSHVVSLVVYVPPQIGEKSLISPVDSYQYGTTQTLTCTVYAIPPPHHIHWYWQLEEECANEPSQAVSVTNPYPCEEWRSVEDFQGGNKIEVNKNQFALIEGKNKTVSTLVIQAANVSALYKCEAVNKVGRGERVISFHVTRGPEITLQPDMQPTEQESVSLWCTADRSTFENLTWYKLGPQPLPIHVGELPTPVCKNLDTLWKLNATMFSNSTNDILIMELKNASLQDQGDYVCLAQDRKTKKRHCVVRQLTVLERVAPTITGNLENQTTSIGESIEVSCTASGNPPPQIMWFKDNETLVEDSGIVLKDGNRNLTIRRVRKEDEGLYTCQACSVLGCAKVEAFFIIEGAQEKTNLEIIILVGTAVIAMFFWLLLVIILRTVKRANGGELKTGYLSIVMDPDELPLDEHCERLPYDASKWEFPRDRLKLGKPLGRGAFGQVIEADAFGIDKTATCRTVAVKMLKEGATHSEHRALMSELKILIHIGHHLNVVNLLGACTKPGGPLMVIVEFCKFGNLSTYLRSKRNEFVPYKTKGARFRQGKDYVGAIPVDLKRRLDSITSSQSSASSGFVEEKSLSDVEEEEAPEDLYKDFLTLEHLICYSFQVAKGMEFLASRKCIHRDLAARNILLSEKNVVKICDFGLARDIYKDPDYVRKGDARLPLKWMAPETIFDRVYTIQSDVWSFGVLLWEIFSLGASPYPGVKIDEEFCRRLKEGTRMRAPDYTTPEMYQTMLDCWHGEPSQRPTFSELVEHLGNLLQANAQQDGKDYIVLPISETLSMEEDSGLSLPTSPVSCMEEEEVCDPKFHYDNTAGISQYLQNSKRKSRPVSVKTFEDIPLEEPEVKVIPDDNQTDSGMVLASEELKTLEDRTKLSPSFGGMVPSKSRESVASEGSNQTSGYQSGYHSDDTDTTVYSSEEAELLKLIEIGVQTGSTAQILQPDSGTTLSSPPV

Row | Compound | blocking effect on fibroblast growth factor-dependent DNA synthesis [1] | effect on DNA synthesis stimulated by insulin, EGF or a combination of both [2] | effect on epidermal growth factor receptor autophosphorylation [3] | mean reduction in SMC count by day 3 (porcine SMC) | reversibility of the inhibitory effect on SMC proliferation (porcine SMC) | IC50 (PDGF β-receptor [10]) | melting point | also measured
1 | CC(C)(C)c1cc(C=C(C#N)C#N)cc(C(C)(C)C)c1O [AG17] | – | – | – | – | – | – | – | inhibition of neointimal formation (neointimal formation): effectively inhibits
2 | Cc1cc2ncc(-c3ccccc3)nc2cc1C [AG1295] | over an order of magnitude weaker blocking effect | weak effects | no effect | 61% | completely reversible | – | – | –
3 | COc1cc2ncc(-c3ccccc3)nc2cc1OC [AG1296] | over an order of magnitude weaker blocking effect | weak effects | no effect | – | – | – | – | inhibition of signalling of human PDGF α-receptor (human PDGF α-receptor): potently inhibits; effect on autophosphorylation of KDR [4]: no effect; effect on DNA synthesis induced by VEGF [5]: no effect; inhibition of signalling of stem cell factor receptor (c-Kit) [6]: potently inhibits; effect on transformed phenotype of sis-transfected NIH 3T3 cells [7]: reverses the transformed phenotype; inhibition of signalling of human PDGF β-receptor (PDGF β-receptor [8]): potently inhibits; effect on activity of kinase p60c-src(F527) (p60c-src(F527)): no effect; effect on src-transformed NIH 3T3 cells [9]: no effect
4 | Cc1nc2cc3ncc(-c4ccccc4)nc3cc2n1C [AG2034, 1,2-dimethyl-7-phenyl imidazolo[5,4-g]quinoxaline] | – | – | – | – | – | 10 µM | 218 °C | concentration giving similar (marked) inhibition of PDGFβR autophosphorylation in intact cells (PDGFβR): 10 to 30 µM
5 | Cc1nc2cc3ncc(-c4cccs4)nc3cc2n1C [AG2044, 1,2-dimethyl-7-(2-thiophene) imidazolo[5,4-g]quinoxaline] | – | – | – | 84% | completely reversible | 5 µM | 218 °C | –
